Measured values reported in PMC11668362, “On the function of TRAP substrate-binding proteins: the isethionate-specific binding protein IseP” (Biochemical Journal, 2024).

biological target: T1, OaIseP (isethionate-specific TRAP substrate-binding protein IseP) (Oleidesulfovibrio alaskensis, UniProt Q312S0); assay: not given; set-up: gene dctP; without the native signal peptide; N-terminal His-tag removed with HRV 3C protease; DSF thermal shift with SYPRO Orange, PM4A Biolog compound screen, change of derivative melting temperature; conditions: PM4A Biolog screen, compound concentration not disclosed; binder
Target sequence in this assay (Q312S0 24-336): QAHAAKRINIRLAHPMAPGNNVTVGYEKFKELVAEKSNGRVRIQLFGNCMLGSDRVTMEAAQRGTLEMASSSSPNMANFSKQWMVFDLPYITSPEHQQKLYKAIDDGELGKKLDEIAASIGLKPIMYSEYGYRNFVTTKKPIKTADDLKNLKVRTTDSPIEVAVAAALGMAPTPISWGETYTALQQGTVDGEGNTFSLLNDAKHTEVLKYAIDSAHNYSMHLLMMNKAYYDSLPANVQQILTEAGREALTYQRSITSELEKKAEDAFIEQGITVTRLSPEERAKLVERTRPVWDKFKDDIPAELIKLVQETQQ

Structure (SMILES) | ΔTmD (°C)
O=P(O)(O)OC[C@H]1OC(O)[C@@H](O)[C@@H](O)[C@@H]1O (stereo partly drawn) [D-mannose-6-phosphate] | -0.09 ± 0.47
CC(=O)N[C@@H](CS)C(=O)O [N-acetyl-L-cysteine] | -0.64 ± 0.24
CCCCS(=O)(=O)O [butane sulfonate] | 0.41 ± 0.46
O=S1(=O)CCCC1 [tetramethylene sulfone] | 0.23 ± 0.11
NC(=O)CCCCC1CCSS1 (racemic) [DL-lipoamide] | 0.60 ± 0.38
O=C(O)COP(=O)(O)O [phospho-glycolic acid] | 0.31 ± 0.21
C[C@@H](OP(=O)(O)O)[C@H](N)C(=O)O [O-phospho-L-threonine] | -0.62 ± 0.28
N[C@@H](CS(=O)O)C(=O)O [L-cysteine sulfinate] | 0.53 ± 0.00
N[C@@H](Cc1ccc(OP(=O)(O)O)cc1)C(=O)O [O-phospho-L-tyrosine] | -0.73 ± 0.33
N[C@@H](CSCSC[C@H](N)C(=O)O)C(=O)O [L-djenkolic acid] | -0.32 ± 0.28
O=P(O)(O)O[C@H]1[C@H](OP(=O)(O)O)[C@@H](OP(=O)(O)O)[C@H](OP(=O)(O)O)[C@@H](OP(=O)(O)O)[C@H]1OP(=O)(O)O [inositol hexaphosphate] | 0.46 ± 0.33
N[C@H](CS)C(=O)O [D-cysteine] | 1.14 ± 0.17
N[C@@H](CS)C(=O)O [L-cysteine] | -0.68 ± 0.11
O=P(O)(O)O[C@H]1O[C@H](CO)[C@@H](O)[C@H](O)[C@H]1O [D-glucose-1-phosphate] | 0.92 ± 0.26
CS(=O)(=O)CC[C@H](N)C(=O)O [L-methionine sulfone] | 0.44 ± 0.13
CSCC[C@@H](N)C(=O)O [D-methionine] | -0.62 ± 0.38
C=C(OP(=O)(O)O)C(=O)O [phosphoenolpyruvate] | -0.63 ± 0.24
N[C@@H](CSC[C@H](N)C(=O)O)C(=O)O [lanthionine] | -0.46 ± 0.10
CSC[C@H](N)C(=O)O [S-methyl-L-cysteine] | -0.41 ± 0.48

Structure (SMILES) | ΔTmD (°C)
N[C@H](Cc1ccc(OP(=O)(O)O)cc1)C(=O)O [O-phospho-D-tyrosine] | 0.87 ± 0.11
O=S(=O)(O)CCO [isethionate, 2-hydroxyethane sulfonate] | 6.52 ± 0.18
CN(CC(=O)O)C(=N)NP(=O)(O)O [phospho-creatine] | 0.41 ± 0.40
N[C@@H](CS(=O)(=O)O)C(=O)O [L-cysteic acid] | 0.11 ± 0.28
CSCC[C@H](NC(=O)CN)C(=O)O [Gly-Met] | -0.01 ± 0.18
CSCC[C@H](N)C(=O)O [L-methionine] | -0.92 ± 0.37
O=P(O)(O)OC1O[C@H](CO)[C@@H](O)[C@H](O)[C@@H]1O (stereo partly drawn) [D-mannose-1-phosphate] | 0.69 ± 0.31
N[C@@H](CS)C(=O)NCC(=O)O [Cys-Gly] | 1.14 ± 0.17
C[S+]([O-])CC[C@H](N)C(=O)O (stereo partly drawn) [L-methionine sulfoxide] | 0.29 ± 0.11
N[C@@H](CCC(=O)N[C@@H](CS)C(=O)NCC(=O)O)C(=O)O [glutathione] | -0.67 ± 0.37
NC(N)=S [thiourea] | -0.73 ± 0.31
NCCS(=O)O [hypotaurine] | -0.68 ± 0.46
NC(=O)OP(=O)(O)O [carbamoyl phosphate] | -0.49 ± 0.28
O=C[C@H](O)[C@@H](O)[C@H](O)[C@H](O)COP(=O)(O)O [D-glucose-6-phosphate] | -0.85 ± 0.37
NCCS [cysteamine] | 0.35 ± 0.00
N[C@H](COP(=O)(O)O)C(=O)O [O-phospho-D-serine] | 0.05 ± 0.42
CS(=O)(=O)O [methane sulfonic acid] | 0.23 ± 0.28
O=P(O)(O)OC(CO)CO [b-glycerol phosphate] | -0.30 ± 0.29
N[C@@H](CCSC[C@H](N)C(=O)O)C(=O)O [cystathionine] | 0.61 ± 0.21

biological target: T1, OaIseP (isethionate-specific TRAP substrate-binding protein IseP); assay: biochemical; set-up: gene dctP; conditions: not given
Target sequence in this assay (Q312S0 24-336 limits assumed): as the sequence (Q312S0 24-336) above

Structure (SMILES) | Kd [nM]
O=S(=O)(O)CCO [isethionate, 2-hydroxyethane sulfonate] | 950

biological target: T1, OaIseP (isethionate-specific TRAP substrate-binding protein IseP); assay: X-ray crystal structure ([…] Å), open conformation; no significant DSF shift at […]; set-up: gene dctP; conditions: not given
Target sequence in this assay (Q312S0 24-336 limits assumed): as the sequence (Q312S0 24-336) above

Structure (SMILES) | X-ray crystal structure (1.89 Å), open conformation; no significant DSF shift at
O=S(=O)(O)CCN1CCN(CCO)CC1 [HEPES, 4-(2-hydroxyethyl)-1-piperazineethanesulfonic acid] | we were able to confidently model HEPES and MES buffer constituents from the crystallisation conditions into the densities

biological target: T1, OaIseP (isethionate-specific TRAP substrate-binding protein IseP); assay: as above; set-up: gene dctP; conditions: not given; remark: another data set of the same source
Target sequence in this assay (Q312S0 24-336 limits assumed): as the sequence (Q312S0 24-336) above

Structure (SMILES) | X-ray crystal structure (1.65 Å), open conformation; no significant DSF shift at
O=S(=O)(O)CCN1CCOCC1 [MES, 2-(N-morpholino)ethanesulfonic acid] | In both HEPES- and MES-bound structures, the sulfonate groups form a salt bridge to Arg177
